# Reference: patent US9486524B2, “Composition for eliciting a specific CTL response, comprising a lympho-ablative compound and a molecule that contains antigenic sequences and targets professional antigen presenting cells” (priority 2006, dated 2016)
# B1: His-Tag-CEA: histidine-tagged full length CEA protein, used as control, formulated with CpG (protein, UniProt P06731 1-702, looked up)
# chain: MESPSAPPHRWCIPWQRLLLTASLLTFWNPPTTAKLTIESTPFNVAEGKEVLLLVHNLPQHLFGYSWYKGERVDGNRQIIGYVIGTQQATPGPAYSGREIIYPNASLLIQNIIQNDTGFYTLHVIKSDLVNEEATGQFRVYPELPKPSISSNNSKPVEDKDAVAFTCEPETQDATYLWWVNNQSLPVSPRLQLSNGNRTLTLFNVTRNDTASYKCETQNPVSARRSDSVILNVLYGPDAPTISPLNTSYRSGENLNLSCHAASNPPAQYSWFVNGTFQQSTQELFIPNITVNNSGSYTCQAHNSDTGLNRTTVTTITVYAEPPKPFITSNNSNPVEDEDAVALTCEPEIQNTTYLWWVNNQSLPVSPRLQLSNDNRTLTLLSVTRNDVGPYECGIQNELSVDHSDPVILNVLYGPDDPTISPSYTYYRPGVNLSLSCHAASNPPAQYSWLIDGNIQQHTQELFISNITEKNSGLYTCQANNSASGHSRTTVKTITVSAELPKPSISSNNSKPVEDKDAVAFTCEPEAQNTTYLWWVNGQSLPVSPRLQLSNGNRTLTLFNVTRNDARAYVCGIQNSVSANRSDPVTLDVLYGPDTPIISPPDSSYLSGANLNLSCHSASNPSPQYSWRINGIPQQHTQVLFIAKITPNNNGTYACFVSNLATGRNNSIVKSITVSASGTSPGLSAGATVGIMIGVLVGVALI
# modifications: full-length His tag
# notes: histidine-tagged full length CEA protein, used as control, formulated with CpG
# Experiments:
# Assay type in all cases: in vivo, C57BL/6 mice
# [1] = system: CD4, CD8 and B220 cells in the spleen and lymph nodes; assay: Lymphocyte depletion in lymphoid organs, phenotyping of spleen and lymph nodes (Example 1, Table 1); settings: 10 days after onset of immunosuppressive treatment; ATG 20 mg/kg single ip, fludarabine 200 mg/kg/day ip 6 days
# Method: (§1) Blood sampling was performed by tail bleeding.
# Blood, lymph node cells and splenocytes were processed according to previously described methods (28, 29) for numeration and flow cytometry assited phenotyping. Blood lymphocytes were counted using Türk blue.
# The blood compartment represents only 1 to 2% on the total body lymphoid mass. Lymphocyte depletion by phenotyping for T and B cells, spleen and lymph nodes 10 days after onset of immunosuppression has been monitored. Similarly to the situation in the blood compartment, ATG- and fludarabine-based immunosuppressive therapies induced a depletion of the T lymphocyte pool in lymphoid organs (Table 1).
# Peripheral lymphoid organs were sampled 10 days after onset of immunosuppressive treatment administration. Values presented are the percentages of CD4, CD8 and B220 cells observed in the spleen and lymph nodes.
# [2] = system: peripheral blood lymphocytes (CD4+, CD8+, CD49d+ and B220+); assay: Peripheral blood lymphocyte depletion induced by immunosuppressive treatment (Example 2); settings: after onset of treatment; Fludarabine 100 mg/kg/day ip for 6 days
# Method: Kinetic of the number of lymphocytes (CD4+, CD8+, CD49d+ and B220+) in peripheral blood following i.p. injection of 100 mg/kg/day Fludarabine for 6 days or following a single i.p. injection of 20 mg/kg ATG. Controls are injected with PBS or with 20 mg/kg of normal rabbit serum (NRS)
# as §1
# (§2) Blood, lymph node cells and splenocytes were processed according to previously described methods (28, 29) for numeration and flow cytometry assisted phenotyping. Blood lymphocytes were counted using Trypan blue.
# Mouse ATG were prepared by injecting a rabbit sc with 5×10^8 thymocytes sampled on 6-weeks old C57BL/6 mice. This immunization was boosted 14 days later with an iv injection of identical material. Seven days later the animal was bled and serum IgG were purified on immobilized protein G column (Pierce). Purity was controlled by SDS PAGE analysis and quantity was estimated by the Bradford method with known concentration rabbit IgG as standards. Rabbit ATG was used at a concentration of 20 mg/kg with a single injection. As a control, normal rabbit serum was used.
# Fludarabine (Sigma) was used at a concentration of 100 mg/kg/day for 6 days. Monoclonal antibodies: anti-CD4-APC, anti-CD8-PerCP, anti-B220-FITC and anti-CD49d (Pan NK)-PE were obtained from BD Biosciences.
# [3] = system: CD4, CD8, CD49d and B220 cells in the spleen and maxillary lymph nodes; assay: Lymphocyte depletion in lymphoid organs, phenotyping of spleen and maxillary lymph nodes (Example 2, Table 2); settings: 14 days after onset of treatment, ATG 20 mg/kg single ip, Fludarabine 100 mg/kg/day ip 6 days
# Method: as §1, §2
# The blood compartment represents only 1 to 2% on the total body lymphoid mass. The Inventors therefore monitored lymphocyte depletion by phenotyping for T and B cells, spleen and lymph nodes 14 days after onset of immunosuppression. Compared to controls (PBS and NRS) Fludarabine- and ATG-based immunosuppressive therapies induced modifications of lymphocyte proportion in lymphoid organs (Table 2).
# Peripheral lymphoid organs were sampled 14 days after onset of immunosuppressive treatment administration. Values presented are the percentages of CD4, CD8, CD49d and B220 cells observed in the spleen and maxillary lymph nodes, and the absolute values of CD4, CD8, CD49d and B220 by reference to the number of lymphocytes contained in each organ.
# MCa32A cells = assay: Tumor rejection model, MC38 murine colon adenocarcinoma cells expressing CEA (Example 2)
# Method: as §1
# MC32aCEA cells expressing CEA protein were obtained from Pr. W. Zimermann (LTI, Munich). These cells are derived from the MC38 murine colon adenocarcinoma (48).
# [4] = system: CEA-specific IFN-γ producing CD8+ cells; assay: γ-IFN ELISpot assay of CEA-specific CD8+ cells after immunization (Example 2)
# Method: […] Seven days after last immunization, CEA-specific IFN-γ producing CD8+ cells were detected by ex vivo ELISpot assay using 1 μg/ml CEA pepscan. Data are expressed as the median numbers of γ-IFN spot forming colonies, SFC (n=3).
# ATG- or Fludarabine-based immunosuppressive treatments were applied to animals 7 days prior to prime boost immunization with recombinant proteins. Immunizations performed iv with equimolar amounts of indicated recombinant proteins (50 μg for CyaAs, 19.2 μg for His-tag CEA) in presence of 10 μg CpG, were boosted id 7 days later with 10 μg of similar material (3.8 μg for His-tag CEA) and 2 μg of CpG. Seven days after last immunization, CEA-specific IFN-γ producing CD8+ cells were detected by ex vivo ELISpot assay using 1 μg/ml CEA pepscan. Data are expressed as the median numbers of γ-IFN spot forming colonies, SFC (n=2).
# Multiscreen filtration plates (96 wells; Millipore, France) were coated with 4 μg/ml of rat anti-mouse gamma interferon (IFN-γ) antibody (clone R4-6A2; PharMingen, San Diego, Calif.), overnight at room temperature. Spleen cells from immunized mice were added to the wells and incubated for 20 h with or without CEA pepscan at 1 μg/ml. […] The number of γ-IFN producing cells was determined by counting the number of spot-forming colonies (SFC) in each well (C.T.L., Germany), and the results were expressed as number of SFC per 1×10^6 splenocytes (20).
molecule,measurement,setting,value
Nc1nc(F)nc2c1ncn2[C@@H]1O[C@H](CO)[C@@H](O)[C@@H]1O [Fludarabine],"percentage of B220+ cells, Lymph nodes",[1],32.4%
same,"percentage of B220+ cells, Spleen",[1],54.3%
same,"percentage of CD4+ cells, Lymph nodes",[1],37.8%
same,"percentage of CD4+ cells, Spleen",[1],21.9%
same,"percentage of CD8+ cells, Lymph nodes",[1],20.8%
same,"percentage of CD8+ cells, Spleen",[1],5.3%
same,time for T cell values to return to control groups,[2],≤ 7 days
same,"B220+ absolute value, Spleen",[3],8 10^6 cells/ml
same,"B220+ percentage, Spleen",[3],42.4%
same,"CD4+ absolute value, Spleen",[3],3.8 10^6 cells/ml
same,"CD4+ percentage, Spleen",[3],20.4%
same,"CD8+ absolute value, Spleen",[3],2.5 10^6 cells/ml
same,"CD8+ percentage, Spleen",[3],13.4%
same,"CD49d+ absolute value, Spleen",[3],1.4 10^6 cells/ml
same,"CD49d+ percentage, Spleen",[3],7.5%
same,"B220+ absolute value, Lymph nodes",[3]; maxillary lymph nodes,0.3 10^6 cells/ml
same,"B220+ percentage, Lymph nodes",[3]; maxillary lymph nodes,30.2%
same,"CD4+ absolute value, Lymph nodes",[3]; maxillary lymph nodes,0.3 10^6 cells/ml
same,"CD4+ percentage, Lymph nodes",[3]; maxillary lymph nodes,31.3%
same,"CD8+ absolute value, Lymph nodes",[3]; maxillary lymph nodes,0.3 10^6 cells/ml
same,"CD8+ percentage, Lymph nodes",[3]; maxillary lymph nodes,35.3%
same,"CD49d+ absolute value, Lymph nodes",[3]; maxillary lymph nodes,0.03 10^6 cells/ml
same,"CD49d+ percentage, Lymph nodes",[3]; maxillary lymph nodes,3.8%
same,size of tumors relative to the other groups (smaller),MCa32A cells; at the time of CyaA-based immunotherapy,20 times
same,survival median of mock-treated animals,"MCa32A cells; immunosuppressive treatment 3 days after tumor inoculation, no CEA immunization",21 to 25 days
B1,CEA-specific cellular immune responses upon immunization after immunosuppressive treatment,"[4]; compared with CyaA-CEAA3B3 + CpG, prime-boost with CpG",Lower CEA-specific cellular immune responses were detected
same,cellular immune response characterized by γ-IFN secretion,"[4]; one single iv administration, with CpG adjuvant, no immunosuppression","neither CyaAΔ-CEAA3B3 nor His-tag-CEA protein formulated with an adjuvant such as CpG, were able to mount a cellular immune response"
